Measured values: US12419307B2, “Mixtures comprising indazole pesticides” (FMC Corporation, priority 2019, dated 2025)
Read-outs that look alike come from different tables or passages of the source.

Experiments:
Format in all cases: in vivo
[1] = tested on: diamondback moth (Plutella xylostella L.); assay: Test E: diamondback moth control on mustard plants, contact and/or systemic, plant damage rating after 6 days
Summary of the method: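 Sprayed 10- to 12-day-old mustard plants (3 replicates), dried 1 h, infested with 30-50 neonate larvae, then held 6 days at 24-25 °C, 70% RH. Plant damage visually rated 0 (undamaged) to 10 (dead); mixture effects judged by Colby's equation.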

[2] = tested on: fall armyworm (Spodoptera frugiperda (J. E. Smith)); assay: Test E: fall armyworm control on corn plants, plant damage rating and mortality after 6 days; conditions: Spodoptera frugiperda, 144 h, Table 6e, read-out: Plant Protection (obs)
[3] = tested on: corn planthopper (Peregrinus maidis (Ashmead)); assay: Test C: corn planthopper control on corn plants, insect mortality after 6 days; conditions: Peregrinus maidis, read-out: % Mortality (obs)
Summary of the method: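 3-4-day-old potted corn plants sprayed at 250, 50 and/or 10 ppm (contact/systemic), dried 1 h, then infested with ~15-20 nymphs 18-21 days old. Mortality scored after 6 days at 19-21 °C, 50-70% RH; mixture effects judged against Colby-expected mortality.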

[4] = tested on: Potato Leafhopper (Empoasca fabae Harris); assay: Test C: Potato Leafhopper control on bean plants, insect mortality after 6 days; conditions: read-out: % Mortality (obs)
Summary of the method: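 Sprays (3 replicates) were applied to 5- to 6-day-old Longio bean plants with one primary leaf excised, which were dried 1 h and infested with 5 adult leafhoppers (18–21 days old). Mortality was scored after 6 days at 19-21° C and 50-70% RH. Mixture enhancement was judged against expected mortality by Colby's equation.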

[5] = tested on: cotton melon aphid (Aphis gossypii Glover); assay: Test D: cotton melon aphid control on okra plants, insect mortality after 6 days; conditions: Aphis gossypii, read-out: % Mortality (obs)
Summary of the method: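 Okra plants (6–7 days old) pre-infested with 30–40 aphids by cut-leaf transfer were sprayed, three replicates, then held 6 days at 19-21° C and 50-70% RH before mortality scoring. Mixture enhancement was judged against Colby-expected % mortality.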

For `C[S+]([O-])CC(C)(C)NC(=O)c1ccc(F)c2nn(-c3cccnc3)cc12` (centres unmarked) [Cpd 2, N-[1,1-dimethyl-2-(methylsulfinyl)ethyl]-7-fluoro-2-(3-pyridinyl)-2H-indazole-4-carboxamide], the “Plant Protection (obs)” value ([1]; Table 6a, 50 ppm) was 0.0, the “Plant Protection (obs)” value ([1]; Table 6a, 250 ppm) was 0.0 and the “Plant Protection (obs)” value ([1]; Table 6b, 50 ppm) was 0.0. For the same molecule, the “Plant Protection (obs)” value ([1]; Table 6b, 250 ppm) was 0.0, the pest or weed control at 50 ppm ([2]; 50 ppm) was 0% and the pest or weed control at 250 ppm ([2]; 250 ppm) was 0%. It also gave a mortality at 50 ppm ([3]; 96 h, Table 4d) of 0%, a mortality at 250 ppm ([3]; 96 h, Table 4d) of 54.1% and a mortality at 50 ppm ([3]; Table 4e) of 7.3%. It also gave a mortality at 250 ppm ([3]; Table 4e) of 22.4%, a mortality at 50 ppm ([4]; Table 4a) of 46.7% and a mortality at 250 ppm ([4]; Table 4a) of 86.7%. The mortality at 50 ppm ([4]; Table 4b) was 6.7%, the mortality at 250 ppm ([4]; Table 4b) was 85.7% and the mortality at 50 ppm ([4]; Table 4c) was 20%. For the same molecule, the mortality at 250 ppm ([4]; Table 4c) was 73.3%, the mortality at 0.05 ppm ([5]; 5 h, Table 5h) was 43.9% and the mortality at 0.18 ppm ([5]; 5 h, Table 5h) was 57.5%. The mortality at 0.05 ppm ([5]; 120 h, Table 5d) was 40.1%, the mortality at 0.18 ppm ([5]; 120 h, Table 5d) was 31.4% and the mortality at 0.05 ppm ([5]; Table 5a) was 40.1%. For the same molecule, the mortality at 0.18 ppm ([5]; Table 5a) was 31.4%, the mortality at 0.05 ppm ([5]; Table 5b) was 40.1% and the mortality at 0.18 ppm ([5]; Table 5b) was 31.4%. It also gave a mortality at 0.05 ppm ([5]; Table 5c) of 0%, a mortality at 0.18 ppm ([5]; Table 5c) of 80% and a mortality at 0.05 ppm ([5]; Table 5e) of 16.3%. It also gave a mortality at 0.18 ppm ([5]; Table 5e) of 37%, a mortality at 0.05 ppm ([5]; Table 5f) of 17.1% and a mortality at 0.18 ppm ([5]; Table 5f) of 37.2%. The mortality at 0.05 ppm ([5]; Table 5g) was 23.4% and the mortality at 0.18 ppm ([5]; Table 5g) was 38.3%.
